pKi: −log10 of the molar value. Read-outs that look alike come from different tables or passages of the source.
Assays:
FKBP12 = FKBP12 (Homo sapiens, UniProt P62942); assay: Inhibition of peptidyl-prolyl isomerase (rotamase) activity of FKBP, chymotrypsin-coupled assay, apparent Ki; type: biochemical
From the text: The inhibition of the prolyl peptidyl cis-trans isomerase activity of FKBP may be measured as an indicator of this affinity. Inhibition of the peptidyl-prolyl isomerase (rotamase) activity of the compounds used in the inventive methods and pharmaceutical compositions can be evaluated by known methods described in the literature (Harding et al., Nature, 1989, 341:758-760; Holt et al. J. Am. Chem. Soc., 115:9923-9938). […] The cis-trans isomerization of an alanine-proline bond in a model substrate, N-succinyl-[…]-nitroanilide, is monitored spectrophotometrically in a chymotrypsin-coupled assay, which releases para-nitroanilide from the trans form of the substrate. […] The reaction is initiated by the addition of […] of substrate (succinyl-[…]-nitroanilide, 5 mg/ml in 2.35 mM LiCl in trifluoroethanol).

[1] = Clearance (Table V comments); type: in vitro ADME
[2] = tested on: retinal ganglion cell axons; assay: Protection of retinal ganglion cell axons from degeneration following optic nerve transection (Table V); type: in vivo; conditions: ± SEM
From the text: Efficacy of representative compounds from different immunophilin ligand series in protecing retinal gangiou cell axons from degeneration following optic nerve transection is set forth in Table V.

[3] = Table V comments, read-out: Ki rotamase
[4] = apparent Ki, rotamase inhibition, Table A, read-out: K1

Sequence of FKBP12 (P62942 whole entry, species assumed): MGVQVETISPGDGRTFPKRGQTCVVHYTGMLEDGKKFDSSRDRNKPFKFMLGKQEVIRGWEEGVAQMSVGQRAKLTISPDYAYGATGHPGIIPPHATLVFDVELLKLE

| pKi (FKBP12; [4]) | Compound | Clearance [1] | also measured |
| --- | --- | --- | --- |
| – | O=C(SCCCc1ccccc1)[C@@H]1CCCN1C(=O)NC12CC3CC(CC(C3)C1)C2 [B] | – | pKi (FKBP12; [3]): 6.83 |
| – | O=C(SCCCc1ccccc1)[C@@H]1CCCN1S(=O)(=O)Cc1ccccc1 [C] | 31.1 µL/min | pKi (FKBP12; [3]): 6.97; RT97 + RGC axon density 14 days after ON transection (% ON axons rescued) [2]: 60.4% ± 3.1% SEM |
| 6.90 | CCC(C)(C)C(=O)C(=O)N1CCCC1C(=O)OCC=Cc1ccccc1 [Compound 2, 3-phenyl-1-prop-2-(E)-enyl (2S)-1-(3,3-dimethyl-1,2-dioxopentyl)-2-pyrrolidinecarboxylate] | – | – |
| 7.19 | CCC(C)(C)C(=O)C(=O)N1CCCC1C(=O)OCC=Cc1cc(OC)c(OC)c(OC)c1 [Compound 4, 3-(3,4,5-trimethoxyphenyl)-1-prop-2-(E)-enyl (2S)-1-(3,3-dimethyl-1,2-dioxopentyl)-2-pyrrolidine carboxylate] | – | – |
| 6.80 | CCC(C)(C)C(=O)C(=O)N1CCCC1C(=O)OCC=Cc1ccc2c(c1)OCO2 [Compound 6, 3-(4,5-methylenedioxyphenyl)-1-prop-2-(E)-enyl (2S)-1-(3,3-dimethyl-1,2-dioxopentyl)-2-pyrrolidinecarboxylate] | – | – |
| 6.22 | CCC(C)(C)C(=O)C(=O)N1CCCC1C(=O)OCC=CC1CCCCC1 [Compound 8, 3-cyclohexyl-1-prop-2-(E) -enyl (2S) -1-(3,3-dimethyl-1,2-doxopentyl)-2-pyrrolidinecarboxylate] | – | – |
| 7.04 | O=C(C(=O)N1CCCC1C(=O)OCCCc1ccccc1)c1cccs1 [Compound 11, 3-phenyl-1-propyl (2S)-1-(1,2-dioxo-2-[2-thienyl])ethyl-2-pyrrolidinecarboxylate] | – | – |
| 7.00 | O=C(C(=O)N1CCCC1C(=O)OCCCc1ccccc1)c1nccs1 [Compound 12, 3-phenyl-1-propyl (2S)-1-(1,2-dioxo-2-[2-thiazolyl])ethyl-2-pyrrolidinecarboxylate] | – | – |
| 5.71 | O=C(C(=O)N1CCCC1C(=O)OCCCc1ccccc1)c1ccccc1 [Compound 13, 3-phenyl-1-propyl (2S)-1-(1,2-dioxo-2-phenyl)ethyl-2-pyrrolidinecarboxylate] | – | – |
| 6.35 | CCC(C)(C)C(=O)C(=O)N1CCCC1C(=O)OCC=Cc1cc(OC)ccc1OC [Compound 15, 3-(2,5-dimethoxyphenyl)-1-prop-2-(E)-enyl (2S)-1-(3,3-dimethyl-1,2-dioxopentyl)-2-pyrrolidine-carboxylate] | – | – |
| 7.70 | O=C(C(=O)N1CCCC1C(=O)OCCC(c1ccccc1)c1ccccc1)C1CCCCC1 [Compound 29, 3,3-Diphenyl-1-propyl (2S)-1-cyclohexyl glyoxyl-2-pyrrolidinecarboxylate] | – | – |
| 6.82 | O=C(C(=O)N1CCCC1C(=O)OCCC(c1ccccc1)c1ccccc1)c1cccs1 [Compound 30, 3,3-Diphenyl-1-propyl (2S) -1-(2-thienyl) glyoxyl-2-pyrrolidinecarboxylate] | – | – |
| – | O=C(OCCCc1ccccc1)[C@@H]1CCCN1S(=O)(=O)Cc1ccccc1 [D] | – | RT97 + RGC axon density 14 days after ON transection (% ON axons rescued) [2]: 58.4% ± 6.4% SEM |
| – | CCC(C)(C)C(=O)C(=O)N1CCCC1C(=O)OC(CCc1ccccc1)CCc1ccccc1 (stereo not drawn) [E] | 41.8 µL/min | RT97 + RGC axon density 14 days after ON transection (% ON axons rescued) [2]: 56.6% ± 9.4% SEM |
| – | CCC(C)(C)C(=O)C(=O)N1CCS[C@@H]1C(=O)OCCCc1cccnc1 [F] | – | pKi (FKBP12; [3]): 6.57 |
| – | O=C(OCCCc1cccnc1)[C@@H]1CCCN1C(=S)NC1CCCCC1 [I] | 8.0 µL/min | pKi (FKBP12; [3]): 6.88 |
| – | CCC(C)(C)C(=O)C(=O)N1CCC[C@H]1C(=O)CCCCc1cccnc1 [J] | 1.5 µL/min | – |
| – | CCC(C)(C)C(=O)C(=O)N1CCCC[C@H]1C(=O)SCCC(c1ccccc1)c1ccccc1 [K] | 5.2 µL/min | RT97 + RGC axon density 14 days after ON transection (% ON axons rescued) [2]: 7.8% ± 3.0% SEM |
| – | CCC(C)(C)C(=O)C(=O)N1CCC[C@H]1C(=O)O [L] | 5.2 µL/min | RT97 + RGC axon density 14 days after ON transection (% ON axons rescued) [2]: 7.8% ± 3.0% SEM |
| – | CCC(C)(C)C(=O)C(=O)N1CCC[C@H]1C(=O)SCCC(c1ccccc1)c1ccccc1 [M] | 12.5 µL/min | RT97 + RGC axon density 14 days after ON transection (% ON axons rescued) [2]: −6.3% + 3.9 SEM |
| – | CN(C)C(=O)N1CCC[C@H]1C(=O)SCCCc1ccccc1 [N] | 21.9 µL/min | pKi (FKBP12; [3]): 6.14 |

| Compound | pKi (FKBP12; [4]) | Clearance [1] | also measured |
| --- | --- | --- | --- |
| CCC(C)(C)C(=O)C(=O)N1CCC[C@H]1C(=O)OCCCc1ccccc1 [Compound 1, 3-Phenyl-1-propyl (2S)-1-(3,3-dimethyl-1,2-dioxopentyl)-2-pyrrolidinecarboxylate] | 7.38 | – | – |
